The text below walks through data of patent EP4722363A1, “RNAI AGENT FOR INHIBITING ANGPTL3 EXPRESSION AND USE THEREOF” (YUN HO BIO CO., LTD, priority 2023, dated 2024).

Series [1] concerns ANGPTL3 Protein. Kind of series: PHH free uptake, inhibition of ANGPTL3, ELISA of supernatant. In kind it is cell-based. The note with it: primary human hepatocytes, 72 hours. The procedure: PHH cells were thawed and adjusted to a density of 6×10^5 cells/mL. Then, 10 µL of the compound from the dilution plate was added to the cell culture plate, resulting in final compound concentrations of 100, 40, 12.5, 5, and 2 nM. The cells were seeded into a 96-well plate at a density of 54,000 cells per well (90 µL/well), with a final culture volume of 100 µL per well. The cells were cultured in a 5% CO2 incubator at 37°C for 72 hours.
(§1) The supernatant from the PHH and PCH cultures from the previous steps was collected, transferred to a new 96-well V-bottom plate, and centrifuged. Human Angiopoietin-like 3 protein (hANGPTL3 protein; DANL30) ELISA test was performed according to the instructions of HANGPTL 3 protein Kit.
(§2) Data Analysis: Four Parameter Logistic method. This method constructs a standard curve by plotting, with the y-axis as the average absorbance of the standards and the x-axis as the concentration, drawing a best-fit curve through the points on the graph. The OD value of the log concentration of the sample's HANGPTL3 protein is determined against the best-fit line of the log concentration by regression analysis. [formula]
(§3) Sequences with good activity in Table 8 were evaluated for in vitro inhibitory activity against ANGPTL3 Protein in primary human hepatocytes (PHH) and primary cynomolgus monkey hepatocytes (PCH). Table 10. In Vitro Inhibitory Activity of MCPP-siRNAs against ANGPTL3 mRNA in PHH Cell Line
Background: An ELISA detects its analyte on a solid surface through an enzyme-linked reagent.

In series [2] the test system is ANGPTL3 Protein. Kind of series: PCH free uptake, inhibition of ANGPTL3, ELISA of supernatant. It counts as cell-based. To be noted: primary cynomolgus monkey hepatocytes, 72 hours. On the procedure: PCH cells were resuscitated using 10% FBS InvitroGRO™ HT Medium, and subsequently, the cell density was adjusted to 3×10^5 cells/mL using 10% FBS InvitroGRO™ CP Medium. Then, 10 µL of the compound from the dilution plate was added to the cell culture plate, resulting in final compound concentrations of 25, 5, and 1 nM. The cells were seeded into a 96-well plate at a density of 27,000 cells per well (90 µL/well), with a final culture volume of 100 µL per well. The cells were cultured in a 5% CO2 incubator at 37 °C for 72 hours.
as §1, §2, §3

Take “2002-018-001: GalNAc-conjugated modified ANGPTL3 siRNA, sense SEQ ID NO 39, antisense SEQ ID NO 13 (sense CAUAGUGAAGCAAUCUAAU; antisense AUUAGAUUGCUUCACUAUGGA; GalNAc conjugated, chemically modified, pattern not given here) [Duplex 2002-018-001]”: in the series on ANGPTL3 Protein [1], 1.9 nM corresponded to half-maximal inhibition (IC50).
On the same count and under the same terms, with “2002-018-002: GalNAc-conjugated modified ANGPTL3 siRNA, sense SEQ ID NO 34, antisense SEQ ID NO 13 (sense CAUAGUGAAGCAAUCUAAU; antisense AUUAGAUUGCUUCACUAUGGA; GalNAc conjugated, chemically modified, pattern not given here) [Duplex 2002-018-002]” the figure was 0.96 nM.
In the case of “2002-033-001: GalNAc-conjugated modified ANGPTL3 siRNA, sense SEQ ID NO 38, antisense SEQ ID NO 12 (sense CAUAGUGAAGCAAUCUAAU; antisense AUUAGAUUGCUUCACUAUGGA; GalNAc conjugated, chemically modified, pattern not given here) [Duplex 2002-033-001]”, the concentration for half-maximal inhibition (IC50) (commonly the concentration at which inhibition is half-maximal) with ANGPTL3 Protein [1] came to 1.08 nM. The entries for the “Average Inhibition in PCH %” value in the series on ANGPTL3 Protein [2] (1nM), in the series with ANGPTL3 Protein [2] (5nM) and in the series with ANGPTL3 Protein [2] (25nM) were 53.11%, 67.45% and 68.80%, respectively.
In the case of “2002-033-002: GalNAc-conjugated modified ANGPTL3 siRNA, sense SEQ ID NO 33, antisense SEQ ID NO 12 (sense CAUAGUGAAGCAAUCUAAU; antisense AUUAGAUUGCUUCACUAUGGA; GalNAc conjugated, chemically modified, pattern not given here) [Duplex 2002-033-002]”, the half-maximal inhibitory concentration (IC50) with ANGPTL3 Protein [1] came to 0.84 nM.
“2002-034-001: GalNAc-conjugated modified ANGPTL3 siRNA, sense SEQ ID NO 38, antisense SEQ ID NO 13 (sense CAUAGUGAAGCAAUCUAAU; antisense AUUAGAUUGCUUCACUAUGGA; GalNAc conjugated, chemically modified, pattern not given here) [Duplex 2002-034-001]”: 1.38 nM corresponded to half-maximal inhibition in the series on ANGPTL3 Protein [1] (IC50). In addition, the “Average Inhibition in PCH %” value in the series on ANGPTL3 Protein [2] (1nM) is listed as 50.50%; in the series on ANGPTL3 Protein [2] (5nM) it was 63.43%; in the series on ANGPTL3 Protein [2] (25nM), 66.66%.
In the series on ANGPTL3 Protein [1], “2002-034-002: GalNAc-conjugated modified ANGPTL3 siRNA, sense SEQ ID NO 33, antisense SEQ ID NO 13 (sense CAUAGUGAAGCAAUCUAAU; antisense AUUAGAUUGCUUCACUAUGGA; GalNAc conjugated, chemically modified, pattern not given here) [Duplex 2002-034-002]” came in with an IC50 of 1.3 nM. In addition, the “Average Inhibition in PCH %” value in the series with ANGPTL3 Protein [2] (1nM) is recorded as 45.42%; in the series with ANGPTL3 Protein [2] (5nM) it was 60.18%; in the series on ANGPTL3 Protein [2] (25nM), 63.01%.
As for “2002-050-L96: L96-conjugated comparator siRNA, sense SEQ ID NO 43, antisense SEQ ID NO 18 (sense CAUAGUGAAGCAAUCUAAU; antisense AUUAGAUUGCUUCACUAUGGA; L96 GalNAc conjugate, position not given here, modification pattern not given here) [Duplex 2002-050-L96, reference compound]”, the IC50 in the series on ANGPTL3 Protein [1] stood at 2.6 nM.
The substance “2008-010-002: GalNAc-conjugated modified ANGPTL3 siRNA, sense SEQ ID NO 35, antisense SEQ ID NO 27 (sense GAGAAGAACUACAUAUAAA; antisense UUUAUAUGUAGUUCUUCUCAG; GalNAc conjugated, chemically modified, pattern not given here) [Duplex 2008-010-002]” came in with an IC50 in the series with ANGPTL3 Protein [1] of 0.98 nM.
In the series on ANGPTL3 Protein [1], “2008-011-001: GalNAc-conjugated modified ANGPTL3 siRNA, sense SEQ ID NO 40, antisense SEQ ID NO 28 (sense GAGAAGAACUACAUAUAAA; antisense UUUAUAUGUAGUUCUUCUCAG; GalNAc conjugated, chemically modified, pattern not given here) [Duplex 2008-011-001]” yielded an IC50 of 2.6 nM. Besides, the figures for the “Average Inhibition in PCH %” value in the series with ANGPTL3 Protein [2] (1nM), in the series with ANGPTL3 Protein [2] (5nM) and with ANGPTL3 Protein [2] (25nM) were 57.51%, 72.91% and 77.81%, respectively.
“2008-011-002: GalNAc-conjugated modified ANGPTL3 siRNA, sense SEQ ID NO 35, antisense SEQ ID NO 28 (sense GAGAAGAACUACAUAUAAA; antisense UUUAUAUGUAGUUCUUCUCAG; GalNAc conjugated, chemically modified, pattern not given here) [Duplex 2008-011-002]”: 0.75 nM corresponded to half-maximal inhibition with ANGPTL3 Protein [1] (IC50). For the same substance, the “Average Inhibition in PCH %” value with ANGPTL3 Protein [2] (1nM) worked out at 54.65%; in the series with ANGPTL3 Protein [2] (5nM) it was 71.25%; with ANGPTL3 Protein [2] (25nM) it was 76.57%.
In turn, “2008-018-001: GalNAc-conjugated modified ANGPTL3 siRNA, sense SEQ ID NO 41, antisense SEQ ID NO 27 (sense GAGAAGAACUACAUAUAAA; antisense UUUAUAUGUAGUUCUUCUCAG; GalNAc conjugated, chemically modified, pattern not given here) [Duplex 2008-018-001]” had an IC50 in the series with ANGPTL3 Protein [1] of 2.34 nM. The “Average Inhibition in PCH %” value was 59.56% in the series with ANGPTL3 Protein [2] (1nM), 73.29% in the series on ANGPTL3 Protein [2] (5nM) and 76.55% with ANGPTL3 Protein [2] (25nM).
For the substance “2008-018-002: GalNAc-conjugated modified ANGPTL3 siRNA, sense SEQ ID NO 36, antisense SEQ ID NO 27 (sense GAGAAGAACUACAUAUAAA; antisense UUUAUAUGUAGUUCUUCUCAG; GalNAc conjugated, chemically modified, pattern not given here) [Duplex 2008-018-002]”, the IC50 in the series on ANGPTL3 Protein [1] stood at 0.96 nM.
“2008-019-001: GalNAc-conjugated modified ANGPTL3 siRNA, sense SEQ ID NO 41, antisense SEQ ID NO 28 (sense GAGAAGAACUACAUAUAAA; antisense UUUAUAUGUAGUUCUUCUCAG; GalNAc conjugated, chemically modified, pattern not given here) [Duplex 2008-019-001]” registered an IC50 in the series with ANGPTL3 Protein [1] of 1.61 nM. Further, the “Average Inhibition in PCH %” value worked out at 58.78% with ANGPTL3 Protein [2] (1nM), 73.01% with ANGPTL3 Protein [2] (5nM) and 75.51% with ANGPTL3 Protein [2] (25nM).
On to “2008-019-002: GalNAc-conjugated modified ANGPTL3 siRNA, sense SEQ ID NO 36, antisense SEQ ID NO 28 (sense GAGAAGAACUACAUAUAAA; antisense UUUAUAUGUAGUUCUUCUCAG; GalNAc conjugated, chemically modified, pattern not given here) [Duplex 2008-019-002]”, for which half-maximal inhibition in the series with ANGPTL3 Protein [1] (IC50) required 1.11 nM. For the same substance, the “Average Inhibition in PCH %” value in the series on ANGPTL3 Protein [2] (1nM) is listed as 52.37%; in the series on ANGPTL3 Protein [2] (5nM), 70.28%; with ANGPTL3 Protein [2] (25nM) it was 73.74%.
In the case of “2008-035-001: GalNAc-conjugated modified ANGPTL3 siRNA, sense SEQ ID NO 42, antisense SEQ ID NO 28 (sense GAGAAGAACUACAUAUAAA; antisense UUUAUAUGUAGUUCUUCUCAG; GalNAc conjugated, chemically modified, pattern not given here) [Duplex 2008-035-001]”, the IC50 in the series with ANGPTL3 Protein [1] worked out at 2.34 nM. In addition, the “Average Inhibition in PCH %” value in the series on ANGPTL3 Protein [2] (1nM) is 46.03%; with ANGPTL3 Protein [2] (5nM), 63.23%; with ANGPTL3 Protein [2] (25nM) it was 68.96%.
Turning to “2008-035-002: GalNAc-conjugated modified ANGPTL3 siRNA, sense SEQ ID NO 37, antisense SEQ ID NO 28 (sense GAGAAGAACUACAUAUAAA; antisense UUUAUAUGUAGUUCUUCUCAG; GalNAc conjugated, chemically modified, pattern not given here) [Duplex 2008-035-002]”, half-maximal inhibition with ANGPTL3 Protein [1] (IC50) required 2.23 nM.
“ARO-05488-003-NAG37: GalNAc-conjugated comparator ANGPTL3 siRNA, sense SEQ ID NO 44, antisense SEQ ID NO 45 (sense GCUCAACAUAUUUGAUCAGUA; antisense UACUGAUCAAAUAUGUUGAGC; GalNAc (NAG37) conjugate, chemistry not fully specified) [reference compound]”: in the series with ANGPTL3 Protein [1], half-maximal inhibition (IC50) was put at 7.19 nM. Also, the “Average Inhibition in PCH %” value came to 28.48% in the series with ANGPTL3 Protein [2] (1nM), 49.83% in the series on ANGPTL3 Protein [2] (5nM) and 60.00% in the series with ANGPTL3 Protein [2] (25nM).
